Laboratory results reported in publication PMC4072711, “A GPBAR1 (TGR5) Small Molecule Agonist Shows Specific Inhibitory Effects on Myeloid Cell Activation In Vitro and Reduces Experimental Autoimmune Encephalitis (EAE) In Vivo” (PLoS ONE, 2014).

Molecular target: T1, GPBAR1 (TGR5) (Homo sapiens, UniProt Q8TDU6)
T1 sequence (Q8TDU6 1-330): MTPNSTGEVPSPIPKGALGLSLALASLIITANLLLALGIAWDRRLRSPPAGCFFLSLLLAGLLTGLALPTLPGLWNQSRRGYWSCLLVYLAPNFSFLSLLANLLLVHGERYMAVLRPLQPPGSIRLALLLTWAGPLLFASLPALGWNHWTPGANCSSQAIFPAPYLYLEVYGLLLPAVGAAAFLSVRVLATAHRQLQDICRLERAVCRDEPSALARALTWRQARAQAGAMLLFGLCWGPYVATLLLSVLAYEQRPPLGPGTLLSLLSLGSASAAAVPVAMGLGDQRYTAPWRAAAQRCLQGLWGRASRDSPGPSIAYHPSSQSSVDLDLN
Experiment: AlphaScreen cAMP assay in CHO cells expressing human GPBAR1; no response in parental CHO cells

BIX02694
EC50: 9 nM
